Test results: ChEMBL document CHEMBL4257573, “Synthesis, modification, and cytotoxic evaluation of 2,3-secotriterpenic β-ketoesters” (Bioorg Med Chem Lett, 2018)
The source made the active and inactive calls. The calls are words filed in the database; no cut-off is given here.

Key:
HEK293 = test: Cytotoxicity against HEK293 cells assessed as reduction in cell viability after 72 hrs by MTT assay; type: cell-based; conditions: Homo sapiens, HEK293, 72 h
[1] = Cytotoxicity against human MS cells assessed as reduction in cell viability after 72 hrs by MTT assay; type: functional, cell-based
HCT-116 [2] = test: Cytotoxicity against human HCT116 cells assessed as reduction in cell viability at 2 uM by MTT assay; type: functional, cell-based; conditions: TDE = time-dependent effect
RD = test: Cytotoxicity against human RD cells assessed as reduction in cell viability after 72 hrs by MTT assay; type: functional, cell-based
HEp-2 = test: Cytotoxicity against human Hep2 cells assessed as reduction in cell viability after 72 hrs by MTT assay; type: functional, cell-based; conditions: HEp-2, 72 h
HCT-116 [3] = test: Cytotoxicity against human HCT116 cells assessed as reduction in cell viability after 72 hrs by MTT assay; type: functional, cell-based; conditions: for IC50: HCT-116, 72 h
HCT-116 [4] = test: Cell cycle arrest in human HCT116 cells assessed as accumulation at S phase at 6 uM after 18 hrs by DAPI staining-based flow cytometric analysis (RVB = 25.49%); type: functional
[5] = Selectivity index, ratio of IC50 for HEK293 cells to IC50 for human MCF7 cells; type: toxicity; conditions: HEK293 cells versus MCF7 cells, read-out: Ratio IC50
HCT-116 [6] = test: Cell cycle arrest in human HCT116 cells assessed as accumulation at G2/M phase at 6 uM after 18 hrs by DAPI staining-based flow cytometric analysis (RVB = 17.25%); type: functional
HCT-116 [7] = test: Induction of apoptosis in human HCT116 cells assessed as necrotic cells at 6 uM after 18 hrs by Annexin V/7-AAD staining based flow cytometric analysis (reference value: 0.62%); type: functional
HCT-116 [8] = test: Cell cycle arrest in human HCT116 cells assessed as accumulation at G2/M phase at 3 uM after 18 hrs by DAPI staining-based flow cytometric analysis (RVB = 17.25%); type: functional
MCF7 = test: Cytotoxicity against human MCF7 cells assessed as reduction in cell viability after 72 hrs by MTT assay; type: functional, cell-based; conditions: MCF7, 72 h
HCT-116 [9] = test: Induction of apoptosis in human HCT116 cells assessed as late apoptotic cells at 6 uM after 18 hrs by Annexin V/7-AAD staining based flow cytometric analysis (reference value: 2.12%); type: functional
HCT-116 [10] = test: Cell cycle arrest in human HCT116 cells assessed as accumulation at G0/G1 phase at 3 uM after 18 hrs by DAPI staining-based flow cytometric analysis (RVB = 47.72%); type: functional
HCT-116 [11] = test: Cell cycle arrest in human HCT116 cells assessed as accumulation at sub-G0 phase at 3 uM after 18 hrs by DAPI staining-based flow cytometric analysis (RVB = 8.55%); type: functional
HCT-116 [12] = test: Cell cycle arrest in human HCT116 cells assessed as decrease in accumulation at G0/G1 phase after 18 hrs by DAPI staining-based flow cytometric analysis; type: functional
HCT-116 [13] = test: Induction of apoptosis in human HCT116 cells assessed as necrotic cells at 3 uM after 18 hrs by Annexin V/7-AAD staining based flow cytometric analysis (reference value: 0.62%); type: functional
HCT-116 [14] = test: Induction of apoptosis in human HCT116 cells assessed as increase in number of cells with condense nucleus at 3 uM after 18 hrs by Hoechst 33258 /rhodamine 123 staining based fluorescence inverted microscopic analysis; type: functional, cell-based
HCT-116 [15] = test: Cell cycle arrest in human HCT116 cells assessed as accumulation at S phase at 3 uM after 18 hrs by DAPI staining-based flow cytometric analysis (RVB = 25.49%); type: functional
HCT-116 [16] = test: Induction of apoptosis in human HCT116 cells assessed as early apoptotic cells at 6 uM after 18 hrs by Annexin V/7-AAD staining based flow cytometric analysis (reference value: 5.84%); type: functional
HCT-116 [17] = test: Induction of apoptosis in human HCT116 cells assessed as viable cells at 6 uM after 18 hrs by Annexin V/7-AAD staining based flow cytometric analysis (reference value: 91.42%); type: functional; conditions: HCT-116, 18 h, read-out: Activity
HCT-116 [18] = test: Induction of apoptosis in human HCT116 cells assessed as late apoptotic cells at 3 uM after 18 hrs by Annexin V/7-AAD staining based flow cytometric analysis (reference value: 2.12%); type: functional
HCT-116 [19] = test: Cell cycle arrest in human HCT116 cells assessed as accumulation at sub-G0 phase at 6 uM after 18 hrs by DAPI staining-based flow cytometric analysis (RVB = 8.55%); type: functional
HCT-116 [20] = test: Induction of apoptosis in human HCT116 cells assessed as early apoptotic cells at 3 uM after 18 hrs by Annexin V/7-AAD staining based flow cytometric analysis (reference value: 5.84%); type: functional
A549 = test: Cytotoxicity against human A549 cells assessed as reduction in cell viability after 72 hrs by MTT assay; type: functional, cell-based; conditions: A549, 72 h
HCT-116 [21] = test: Induction of apoptosis in human HCT116 cells assessed as increase in early apoptotic cells after 18 hrs by Annexin V/7-AAD staining based flow cytometric analysis; type: functional, cell-based
HCT-116 [22] = test: Cytotoxicity against human HCT116 cells assessed as reduction in cell viability at 3 to 6 uM by MTT assay; type: functional, cell-based; conditions: TDE = time-dependent effect
[23] = Selectivity index, ratio of IC50 for HEK293 cells to IC50 for human MS cells; type: toxicity; conditions: HEK293 cells versus MS cells, read-out: Ratio IC50
HCT-116 [24] = test: Cell cycle arrest in human HCT116 cells assessed as accumulation at G0/G1 phase at 6 uM after 18 hrs by DAPI staining-based flow cytometric analysis (RVB = 47.72%); type: functional
HCT-116 [25] = test: Antimigratory activity in human HCT116 cells after 96 hrs by wound healing assay; type: functional, cell-based
[26] = Selectivity index, ratio of IC50 for HEK293 cells to IC50 for human Hep2 cells; type: toxicity; conditions: HEK293 cells versus Hep2 cells, read-out: Ratio IC50
HCT-116 [27] = test: Induction of mitochondrial membrane depolarization in human HCT116 cells at 3 uM after 18 hrs by Hoechst 33258 /rhodamine 123 staining based fluorescence inverted microscopic analysis; type: functional, cell-based
HCT-116 [28] = test: Induction of apoptosis in human HCT116 cells assessed as viable cells at 3 uM after 18 hrs by Annexin V/7-AAD staining based flow cytometric analysis (reference value: 91.42%); type: functional; conditions: HCT-116, 18 h, read-out: Activity
HCT-116 [29] = test: Induction of apoptosis in human HCT116 cells assessed as decrease in viable cells after 18 hrs by Annexin V/7-AAD staining based flow cytometric analysis; type: functional, cell-based
HCT-116 [30] = test: Induction of apoptosis in human HCT116 cells assessed as viable cells at 2 uM after 18 hrs by Annexin V/7-AAD staining based flow cytometric analysis (reference value: 91.42%); type: functional; conditions: HCT-116, 18 h, read-out: Activity
HCT-116 [31] = test: Induction of apoptosis in human HCT116 cells assessed as necrotic cells at 2 uM after 18 hrs by Annexin V/7-AAD staining based flow cytometric analysis (reference value: 0.62%); type: functional
HCT-116 [32] = test: Induction of apoptosis in human HCT116 cells assessed as late apoptotic cells at 2 uM after 18 hrs by Annexin V/7-AAD staining based flow cytometric analysis (reference value: 2.12%); type: functional
HCT-116 [33] = test: Cell cycle arrest in human HCT116 cells assessed as accumulation at S phase at 2 uM after 18 hrs by DAPI staining-based flow cytometric analysis (RVB = 25.49%); type: functional
HCT-116 [34] = test: Cell cycle arrest in human HCT116 cells assessed as accumulation at sub-G0 phase at 2 uM after 18 hrs by DAPI staining-based flow cytometric analysis (RVB = 8.55%); type: functional
HCT-116 [35] = test: Induction of apoptosis in human HCT116 cells assessed as early apoptotic cells at 2 uM after 18 hrs by Annexin V/7-AAD staining based flow cytometric analysis (reference value: 5.84%); type: functional
HCT-116 [36] = test: Cell cycle arrest in human HCT116 cells assessed as accumulation at G2/M phase at 2 uM after 18 hrs by DAPI staining-based flow cytometric analysis (RVB = 17.25%); type: functional
HCT-116 [37] = test: Antimigratory activity in human HCT116 cells at 2 uM after 96 hrs by wound healing assay; type: functional, cell-based
HCT-116 [38] = test: Cell cycle arrest in human HCT116 cells assessed as accumulation at G0/G1 phase at 2 uM after 18 hrs by DAPI staining-based flow cytometric analysis (RVB = 47.72%); type: functional

## COc1cccc2c1C(=O)c1c(O)c3c(c(O)c1C2=O)C[C@@](O)(C(=O)CO)C[C@@H]3O[C@H]1C[C@H](N)[C@H](O)[C@H](C)O1 [DOXORUBICIN]
HEK293
  IC50: 0.02 µM
[1]
  IC50: 1.29 µM
HCT-116 [2]
  Activity: Tde
RD
  IC50: 1.27 µM
HEp-2
  IC50: 1.78 µM
HCT-116 [3]
  Activity: Dose-dependent effect

## C=C(C=O)[C@@H]1CC[C@]2(C(=O)OC)CC[C@]3(C)[C@H](CC[C@@H]4[C@@](C)(CC#N)[C@H](C(C)(C)C(=O)COC(C)=O)CC[C@]43C)[C@@H]12
HCT-116 [4]
  Activity: 24.03%
HEK293
  IC50: 29.5 µM
[1]
  IC50: 3.61 µM
[5]
  selectivity ratio: 2.42 to 9.61
HCT-116 [6]
  Activity: 15.27%
HCT-116 [7]
  Activity: 3.21%
HCT-116 [8]
  Activity: 19.99%
MCF7
  IC50: 9.68 µM
HCT-116 [9]
  Activity: 11.2%
HCT-116 [10]
  Activity: 35.65%
HCT-116 [11]
  Activity: 15.07%
HCT-116 [12]
  Activity: Dose-dependent effect
RD
  IC50: 3.5 µM
HCT-116 [13]
  Activity: 2.6%
HEp-2
  IC50: 12.2 µM
HCT-116 [14]
  Activity: Active
HCT-116 [15]
  Activity: 28.16%
HCT-116 [16]
  Activity: 27.07%
HCT-116 [17]
  viability at 6 µM: 58.5%
HCT-116 [18]
  Activity: 11.99%
HCT-116 [19]
  Activity: 38.29%
HCT-116 [20]
  Activity: 14.06%
A549
  IC50: 10.2 µM
HCT-116 [21]
  Activity: Dose-dependent effect
HCT-116 [22]
  Activity: Tde
[23]
  selectivity ratio: 2.42 to 9.61
HCT-116 [24]
  Activity: 21.49%
HCT-116 [3]
  Activity: Dose-dependent effect
  IC50: 3.07 µM
HCT-116 [25]
  Activity: Dose-dependent effect
[26]
  selectivity ratio: 2.42 to 9.61
HCT-116 [27]
  Activity: Active
HCT-116 [28]
  viability at 3 µM: 71.3%
HCT-116 [29]
  Activity: Dose-dependent effect

## CC[C@@]1(O)C(=O)OCc2c1cc1n(c2=O)Cc2cc3ccccc3nc2-1 [CAMPTOTHECIN]
HEK293
  IC50: 1.61 µM
[1]
  IC50: 0.77 µM
[5]
  selectivity ratio: 0.53 to 40.2
HCT-116 [30]
  viability at 2 µM: 81.9%
HCT-116 [2]
  Activity: Tde
MCF7
  IC50: 0.04 µM
HCT-116 [31]
  Activity: 5.08%
HCT-116 [32]
  Activity: 7.33%
RD
  IC50: 1.72 µM
HCT-116 [33]
  Activity: 36.77%
HCT-116 [34]
  Activity: 24.52%
HCT-116 [35]
  Activity: 5.73%
HCT-116 [36]
  Activity: 10.06%
A549
  IC50: 1.31 µM
[23]
  selectivity ratio: 0.53 to 40.2
HCT-116 [37]
  Activity: Active
HCT-116 [3]
  Activity: Dose-dependent effect
[26]
  selectivity ratio: 0.53 to 40.2
HCT-116 [38]
  Activity: 27.71%

## C=C(C=O)[C@@H]1CC[C@]2(C(=O)OC)CC[C@]3(C)[C@H](CC[C@@H]4[C@]5(C)[C@@H](CC[C@]43C)C(C)(C)[C@@](O)(CO)[C@H]5C#N)[C@@H]12
HEK293
  IC50: 118 µM
[1]
  IC50: 12.3 µM
[5]
  selectivity ratio: 4.08 to 20.2
MCF7
  IC50: 8.39 µM
RD
  IC50: 5.83 µM
HEp-2
  IC50: 23.7 µM
A549
  IC50: 28.8 µM
[23]
  selectivity ratio: 4.08 to 20.2
HCT-116 [3]
  IC50: 9.32 µM
[26]
  selectivity ratio: 4.08 to 20.2
